Assay results reported in ChEMBL document CHEMBL1201862, “PubChem BioAssay data set” (2004).
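96-well plates; 48 h exposure; 5 concentrations. Endpoints by linear interpolation between flanking doses. Not reached: highest tested concentration assigned. GI50 marks 50% less growth.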 Active and inactive are the calls of the source. No stated cut-off is given here; in the data, active = GI50 up to about 1.1 µM and inactive = higher.

Key:
Assay in all cases: NCI anticancer screen, dose series, 48 h
HCC 2998 = test system: HCC 2998
786-0 = test system: 786-0
A549 = test system: A549
TK-10 = test system: TK-10
SK-MEL-5 = test system: SK-MEL-5
SW-620 = test system: SW-620
RPMI-8226 = test system: RPMI-8226
LOX IMVI = test system: LOX IMVI
HT-29 = test system: HT-29
A498 = test system: A498
NCI-H23 = test system: NCI-H23
EKVX = test system: EKVX
HCT-116 = test system: HCT-116
SK-MEL-2 = test system: SK-MEL-2
HOP-92 = test system: HOP-92

Measured: GI50

COc1c(C)c2c(c(C)c1Cl)Oc1c(C=O)c(O)c(Cl)c(C)c1C(=O)O2
inactive: HCC 2998 28.1 µM | 786-0 31 µM | A549 33.7 µM | TK-10 31.8 µM | SK-MEL-5 95.7 µM | SW-620 43.8 µM | RPMI-8226 32.6 µM | LOX IMVI 25.9 µM | HT-29 36.9 µM | A498 24.2 µM | NCI-H23 21.1 µM | EKVX 17.9 µM | HCT-116 23 µM

Cc1cc([N+](=O)[O-])c(C)c2c1[nH]c1ccc(/C(CCC3CCCC3)=N\N)cc12
inactive: HCC 2998 17 µM | 786-0 14.7 µM | A549 17.6 µM | TK-10 14.2 µM | SK-MEL-5 18.2 µM | SW-620 16.5 µM | RPMI-8226 20.3 µM | LOX IMVI 15.4 µM | HT-29 24 µM | SK-MEL-2 16.2 µM | NCI-H23 14.7 µM | EKVX 17.4 µM | HCT-116 9.89 µM

CC1=C(C(=O)Nc2ccccc2C)C(/C=C/c2ccccc2)C(C(=O)Nc2ccccc2C)=C(C)N1
inactive: HCC 2998 > 100 µM | 786-0 > 100 µM | HOP-92 80 µM | A549 99.3 µM | TK-10 > 100 µM | SK-MEL-5 > 100 µM | SW-620 > 100 µM | LOX IMVI 74.8 µM | HT-29 > 100 µM | A498 37.8 µM | SK-MEL-2 > 100 µM | NCI-H23 > 100 µM | EKVX > 100 µM | HCT-116 > 100 µM

COc1cc(C2C(Cl)C(=O)N2NC(=O)c2ccc(N)cc2)cc(Br)c1O (stereo not given)
inactive: HCC 2998 12 µM | 786-0 13.3 µM | HOP-92 23 µM | A549 21.5 µM | TK-10 18.5 µM | SK-MEL-5 17.9 µM | SW-620 15.2 µM | RPMI-8226 24.4 µM | LOX IMVI 2.75 µM | HT-29 19.8 µM | A498 37.2 µM | SK-MEL-2 17 µM | NCI-H23 16.4 µM | EKVX 13.2 µM | HCT-116 10.4 µM

CC12CC(Sc3ccccc3N1)c1ccccc1O2 (stereo not given)
inactive: HCC 2998 17.1 µM | 786-0 17.7 µM | HOP-92 18.7 µM | A549 18.8 µM | TK-10 28.9 µM | SK-MEL-5 14.8 µM | SW-620 17.7 µM | RPMI-8226 13.6 µM | LOX IMVI 13.7 µM | HT-29 19.7 µM | A498 18.5 µM | SK-MEL-2 12.8 µM | NCI-H23 15.7 µM | EKVX 18.6 µM | HCT-116 15.2 µM

CC[P+](C)(C)CC
inactive: HCC 2998 > 100 µM | 786-0 > 100 µM | HOP-92 > 100 µM | A549 > 100 µM | TK-10 > 100 µM | SK-MEL-5 > 100 µM | SW-620 > 100 µM | RPMI-8226 > 100 µM | LOX IMVI > 100 µM | HT-29 > 100 µM | SK-MEL-2 82.8 µM | NCI-H23 > 100 µM | EKVX > 100 µM | HCT-116 > 100 µM

C[C@H](NC(=O)n1c2ccccc2c2ccccc21)C(=O)O
inactive: HCC 2998 > 100 µM | 786-0 > 100 µM | HOP-92 > 100 µM | A549 > 100 µM | TK-10 > 100 µM | SK-MEL-5 > 100 µM | SW-620 > 100 µM | RPMI-8226 > 100 µM | LOX IMVI > 100 µM | HT-29 > 100 µM | SK-MEL-2 > 100 µM | NCI-H23 > 100 µM | EKVX > 100 µM | HCT-116 > 100 µM

O=C(O)/C(=C/c1ccccc1[N+](=O)[O-])c1cccs1
inactive: HCC 2998 > 100 µM | 786-0 > 100 µM | A549 > 100 µM | TK-10 > 100 µM | SK-MEL-5 > 100 µM | SW-620 > 100 µM | RPMI-8226 > 100 µM | LOX IMVI > 100 µM | HT-29 > 100 µM | A498 > 100 µM | SK-MEL-2 > 100 µM | NCI-H23 > 100 µM | EKVX > 100 µM | HCT-116 > 100 µM

CCOC(=O)C(=O)Nc1ccccc1C(F)(F)F
inactive: HCC 2998 > 100 µM | 786-0 > 100 µM | HOP-92 > 100 µM | A549 > 100 µM | TK-10 > 100 µM | SW-620 > 100 µM | RPMI-8226 > 100 µM | LOX IMVI > 100 µM | HT-29 > 100 µM | A498 > 100 µM | SK-MEL-2 > 100 µM | NCI-H23 > 100 µM | EKVX > 100 µM | HCT-116 > 100 µM

O=C1Nc2ccccc2C12CCCC2
inactive: HCC 2998 > 100 µM | 786-0 > 100 µM | A549 > 100 µM | TK-10 > 100 µM | SK-MEL-5 > 100 µM | SW-620 > 100 µM | RPMI-8226 > 100 µM | HT-29 > 100 µM | A498 > 100 µM | SK-MEL-2 > 100 µM | NCI-H23 > 100 µM | EKVX 72.3 µM | HCT-116 > 100 µM

O=C(O)[C@@H](NS(=O)(=O)c1ccc([N+](=O)[O-])cc1)c1ccccc1
inactive: HCC 2998 > 100 µM | 786-0 > 100 µM | HOP-92 > 100 µM | A549 > 100 µM | TK-10 > 100 µM | SK-MEL-5 > 100 µM | SW-620 > 100 µM | RPMI-8226 > 100 µM | LOX IMVI > 100 µM | HT-29 > 100 µM | A498 > 100 µM | SK-MEL-2 > 100 µM | NCI-H23 > 100 µM | EKVX > 100 µM

C[C@H](C(=O)C12CC3CC(CC(C3)C1)C2)[C@H](O)c1ccccc1
inactive: 786-0 22.8 µM | HOP-92 21.9 µM | A549 40.7 µM | TK-10 36.1 µM | SK-MEL-5 17.6 µM | SW-620 47.9 µM | RPMI-8226 36 µM | LOX IMVI 17.5 µM | HT-29 18.7 µM | SK-MEL-2 19 µM | NCI-H23 36.7 µM | EKVX 43.7 µM | HCT-116 16.1 µM

O=C1/C=C(/c2ccc(O)cc2)[C@@H](OC2OC(CO)C(O)C(O)C2O)Cc2ccc(O)cc2O1.O=C1/C=C(/c2ccc(O)cc2)[C@H](O)Cc2ccc(O[C@@H]3OC(CO)C(O)C(O)C3O)cc2O1 (stereo not given in full)
inactive: 786-0 > 100 µM | A549 > 100 µM | TK-10 > 100 µM | SK-MEL-5 > 100 µM | SW-620 > 100 µM | RPMI-8226 25.2 µM | LOX IMVI > 100 µM | HT-29 > 100 µM | A498 > 100 µM | SK-MEL-2 > 100 µM | NCI-H23 > 100 µM | EKVX > 100 µM | HCT-116 > 100 µM

O=C(C(=O)c1ccc(Cc2ccc(C(=O)C(=O)c3ccccc3)cc2)cc1)c1ccccc1
inactive: HCC 2998 > 100 µM | 786-0 > 100 µM | HOP-92 > 100 µM | A549 > 100 µM | TK-10 > 100 µM | SK-MEL-5 > 100 µM | SW-620 > 100 µM | LOX IMVI > 100 µM | HT-29 > 100 µM | A498 > 100 µM | SK-MEL-2 > 100 µM | NCI-H23 > 100 µM | EKVX > 100 µM | HCT-116 > 100 µM

C=C1C(=O)O[C@H](c2ccoc2)C[C@@H]1[C@@]1(C)CCCC2(C)C(=O)OCC21 (stereo not given in full)
inactive: HCC 2998 > 100 µM | 786-0 > 100 µM | A549 > 100 µM | TK-10 > 100 µM | SK-MEL-5 > 100 µM | SW-620 > 100 µM | RPMI-8226 > 100 µM | LOX IMVI > 100 µM | HT-29 > 100 µM | A498 > 100 µM | SK-MEL-2 > 100 µM | NCI-H23 > 100 µM | EKVX > 100 µM | HCT-116 > 100 µM

Cn1c2c(c3ccccc31)CCN(CCCCN1CCc3c(n(C)c4ccccc34)C1=O)C2
inactive: 786-0 > 100 µM | HOP-92 > 100 µM | A549 > 100 µM | TK-10 > 100 µM | SK-MEL-5 > 100 µM | SW-620 > 100 µM | RPMI-8226 > 100 µM | HT-29 > 100 µM | A498 > 100 µM | SK-MEL-2 > 100 µM | NCI-H23 > 100 µM | EKVX > 100 µM | HCT-116 > 100 µM

CC(=O)OC1CCn2nnc(COC(=O)NC(C)C)c21 (stereo not given)
inactive: HCC 2998 > 100 µM | 786-0 > 100 µM | HOP-92 > 100 µM | A549 > 100 µM | TK-10 > 100 µM | SK-MEL-5 > 100 µM | SW-620 > 100 µM | RPMI-8226 > 100 µM | HT-29 > 100 µM | SK-MEL-2 > 100 µM | NCI-H23 > 100 µM | EKVX > 100 µM | HCT-116 > 100 µM

CN(C)CCC(=O)N1CCc2c([nH]c3ccccc23)C1c1cccnc1 (stereo not given)
inactive: HCC 2998 > 100 µM | 786-0 > 100 µM | HOP-92 36.3 µM | A549 > 100 µM | TK-10 > 100 µM | SK-MEL-5 > 100 µM | SW-620 > 100 µM | RPMI-8226 > 100 µM | LOX IMVI > 100 µM | HT-29 > 100 µM | A498 > 100 µM | NCI-H23 > 100 µM | EKVX > 100 µM | HCT-116 > 100 µM

Nc1nc(CCC(=O)Nc2cccc(C(F)(F)F)c2)cc(-c2cccc3ccccc23)n1
inactive: HCC 2998 > 100 µM | 786-0 > 100 µM | A549 > 100 µM | TK-10 > 100 µM | SK-MEL-5 > 100 µM | SW-620 > 100 µM | LOX IMVI > 100 µM | HT-29 > 100 µM | A498 > 100 µM | SK-MEL-2 > 100 µM | NCI-H23 > 100 µM | EKVX > 100 µM | HCT-116 > 100 µM
